Test results as given in patent US11845742B2, “Therapeutic compounds and methods to treat infection” (priority 2017, dated 2023).
Values after ≈ are worked out from the molar mass of the structure shown. Read-outs that look alike come from different tables or passages of the source.

Key:
K. pneumoniae ATCC 10031 = assay: Intrinsic MIC assay (broth microdilution), K. pneumoniae; assay type: cell-based, Klebsiella pneumoniae; details: for MIC: Klebsiella pneumoniae
Experimental: (§1) MIC assays were conducted in accordance with Clinical and Laboratory Standards Institute (CLSI) guidelines for broth microdilution.
(§2) The intrinsic MIC of the experimental EPIs was tested with the method described. The 2-fold serial dilution begins with 100 μg/mL of tested compound in the first column of the 96-well plates. The following Gram-negative bacterial strains were included in these assays: • Escherichia coli ATCC 25922 • Klebsiella pneumoniae ATCC 13883 and ATCC 10031 • Pseudomonas aeruginosa ATCC 27853. • Pseudomonas aeruginosa PAO1 • Acinetobacter baumannii ATCC 19606

E. coli ATCC 25922 = assay: Intrinsic MIC assay (broth microdilution), E. coli; assay type: cell-based, Escherichia coli; details: for MIC: Escherichia coli
Experimental: as §1, §2

P. Aeruginosa PAO1 [1] = assay: MIC assay in the presence of a bacterial efflux pump inhibitor (EPI), P. aeruginosa PAO1; assay type: cell-based, Pseudomonas aeruginosa; details: in the presence of 12.5 μg/ml of N-(((2S,4R)-4-(aminomethyl)pyrrolidin-2-yl)methyl)-6-(4-fluorophenyl)-1H-indole-2-carboxamide
Experimental: The ability of a compound to produce an antibiotic effect can be determined using a method as described in Example 11. Data for representative compounds used in combination with the bacterial efflux pump inhibitor (EPI) N-(((2S,4R)-4-(aminomethyl)pyrrolidin-2-yl)methyl)-6-(4-fluorophenyl)-1H-indole-2-carboxamide is shown in Table 1.
as §1
The EPI assay for the purposes of these studies represents a MIC assay in which the MIC of the antibiotic against the bacteria is tested in the presence of an experimental efflux pump inhibitor (EPI). The highest concentration of the EPI present in the assay typically is ½ of the intrinsic MIC of the compound. […] Using serial dilutions of the EPI, its enhancement of antibiotic activity was then evaluated. The relative EPI activity was decided by comparing the MIC of the antibiotic in the presence of the EPI compound with the intrinsic MIC of the antibiotic alone. For comparative purposes, we generally used EPIs at concentration of 12.5 and 6.25 μg/ml against varying concentration of our test antibiotic.

P. Aeruginosa PAO1 [2] = assay: Intrinsic MIC assay (broth microdilution), P. aeruginosa PAO1; assay type: cell-based, Pseudomonas aeruginosa; details: for MIC: Pseudomonas aeruginosa, read-out: Intrinsic MIC
Experimental: as §1, §2

A. baumannii ATCC 19606 = assay: Intrinsic MIC assay (broth microdilution), A. baumannii; assay type: cell-based, Acinetobacter baumannii; details: for MIC: Acinetobacter baumannii
Experimental: as §1, §2

[3] = P. Aeruginosa PAO1, without EPI
[4] = ATCC10031, K. pneumoniae ATCC 10031, read-out: Intrinsic MIC
[5] = ATCC25922, E. coli ATCC 25922, read-out: Intrinsic MIC
[6] = ATCC19606, A. baumannii ATCC 19606, read-out: Intrinsic MIC
[7] = 18 h, P. Aeruginosa PAO1, without EPI

Row | MIC in the Presence of EPI* (P. Aeruginosa PAO1 [1]) | Intrinsic MIC (P. Aeruginosa PAO1 [2]; [3]) | MIC (K. pneumoniae ATCC 10031; [4]) | MIC (E. coli ATCC 25922; [5]) | MIC (A. baumannii ATCC 19606; [6]) | MIC (P. Aeruginosa PAO1 [2]; [7]) | Compound | Intrinsic MIC (K. pneumoniae ATCC 10031; K. pneumoniae ATCC 10031) | Intrinsic MIC (E. coli ATCC 25922; E. coli ATCC 25922) | Intrinsic MIC (A. baumannii ATCC 19606; A. baumannii ATCC 19606) | MIC (K. pneumoniae ATCC 10031; ATCC10031, read-out: Intrinsic MIC) | MIC (E. coli ATCC 25922; ATCC25922, read-out: Intrinsic MIC) | MIC (P. Aeruginosa PAO1 [2]; PAO1, 18 h) | MIC (A. baumannii ATCC 19606; ATCC19606, read-out: Intrinsic MIC)
1 | 128 µg/mL | – | > 256 µg/mL | > 256 µg/mL | > 256 µg/mL | > 256 µg/mL | CC(N)c1cc2ccccc2[nH]1 (centres unmarked) [Example 4, 1-(1H-Indol-2-yl)ethan-1-amine] | – | – | – | – | – | – | –
2 | 64 µg/mL | – | 64 µg/mL (≈ 253 µM) | 128 µg/mL (≈ 506 µM) | 128 µg/mL (≈ 506 µM) | > 256 µg/mL | CC(N)c1cc2cc(Br)ccc2n1C (centres unmarked) [Example 5, 1-(5-Bromo-1-methyl-1H-indol-2-yl)ethan-1-amine] | – | – | – | – | – | – | –
3 | 64 µg/mL | – | 64 µg/mL (≈ 262 µM) | 128 µg/mL (≈ 524 µM) | 64 µg/mL (≈ 262 µM) | > 256 µg/mL | CC(N)c1cc2cc(OC(F)(F)F)ccc2[nH]1 (centres unmarked) [Example 11, 1-(5-(Trifluoromethoxy)-1H-indol-2-yl)ethan-1-amine] | – | – | – | – | – | – | –
4 | 256 µg/mL | – | > 256 µg/mL | > 256 µg/mL | > 256 µg/mL | > 256 µg/mL | CC(c1cc2ccccc2[nH]1)N(C)C (centres unmarked) [Example 12, 1-(1H-Indol-2-yl)-N,N-dimethylethan-1-amine] | – | – | – | – | – | – | –

The next lines start with the compound.

Row | Compound | MIC in the Presence of EPI* (P. Aeruginosa PAO1 [1]) | Intrinsic MIC (P. Aeruginosa PAO1 [2]; [3]) | MIC (K. pneumoniae ATCC 10031; [4]) | MIC (E. coli ATCC 25922; [5]) | MIC (A. baumannii ATCC 19606; [6]) | MIC (P. Aeruginosa PAO1 [2]; [7]) | Intrinsic MIC (K. pneumoniae ATCC 10031; K. pneumoniae ATCC 10031) | Intrinsic MIC (E. coli ATCC 25922; E. coli ATCC 25922) | Intrinsic MIC (A. baumannii ATCC 19606; A. baumannii ATCC 19606) | MIC (K. pneumoniae ATCC 10031; ATCC10031, read-out: Intrinsic MIC) | MIC (E. coli ATCC 25922; ATCC25922, read-out: Intrinsic MIC) | MIC (P. Aeruginosa PAO1 [2]; PAO1, 18 h) | MIC (A. baumannii ATCC 19606; ATCC19606, read-out: Intrinsic MIC)
5 | 1-(5-Bromo-1H-indol-2-yl)ethane-1,2-diamine [Example 6] | 128 µg/mL | 256 µg/mL | – | – | – | – | 64 µg/mL | 128 µg/mL | 128 µg/mL | – | – | – | –
6 | CC(N)c1cc2cc(Br)ccc2[nH]1 (centres unmarked) [Example 1, 1-(5-Bromo-1H-indol-2-yl)ethan-1-amine] | 8 µg/mL | 128 µg/mL | 64 µg/mL (≈ 268 µM) | 128 µg/mL (≈ 535 µM) | 128 µg/mL (≈ 535 µM) | – | – | – | – | – | – | – | –
7 | CCCCC(N)c1cc2cc(Br)ccc2[nH]1 (centres unmarked) [Example 2, 1-(5-Bromo-1H-indol-2-yl)pentan-1-aminium chloride] | 64 µg/mL | – | – | – | – | – | – | – | – | 16 µg/mL | 16 µg/mL | > 256 µg/mL | 32 µg/mL
8 | CNC(C)c1cc2cc(Br)ccc2[nH]1 (centres unmarked) [Example 3, 1-(5-Bromo-1H-indol-2-yl)-N-methylethan-1-amine] | 64 µg/mL | – | 128 µg/mL (≈ 506 µM) | 256 µg/mL (≈ 1010 µM) | 64 µg/mL (≈ 253 µM) | > 256 µg/mL | – | – | – | – | – | – | –
9 | CC(N)c1cc2cc(F)ccc2[nH]1 (centres unmarked) [Example 7, 1-(5-Fluoro-1H-indol-2-yl)ethan-1-amine] | 16 µg/mL | 256 µg/mL | > 256 µg/mL | > 256 µg/mL | > 256 µg/mL | – | – | – | – | – | – | – | –
10 | COc1ccc2[nH]c(C(C)N)cc2c1 (centres unmarked) [Example 8, 1-(5-Methoxy-1H-indol-2-yl)ethan-1-amine] | 256 µg/mL | – | > 256 µg/mL | > 256 µg/mL | 256 µg/mL (≈ 1350 µM) | > 256 µg/mL | – | – | – | – | – | – | –
11 | CC(N)c1cc2cc(C(F)(F)F)ccc2[nH]1 (centres unmarked) [Example 9, 1-(5-(Trifluoromethyl)-1H-indol-2-yl)ethan-1-amine] | 16 µg/mL | – | 64 µg/mL (≈ 280 µM) | 128 µg/mL (≈ 561 µM) | 64 µg/mL (≈ 280 µM) | > 256 µg/mL | – | – | – | – | – | – | –
12 | CC(N)c1cc2ccc(Br)cc2[nH]1 (centres unmarked) [Example 10, 1-(6-Bromo-1H-indol-2-yl)ethan-1-amine] | 32 µg/mL | – | 128 µg/mL (≈ 535 µM) | 256 µg/mL (≈ 1070 µM) | 128 µg/mL (≈ 535 µM) | > 256 µg/mL | – | – | – | – | – | – | –
13 | NCc1cc2ccc(Br)cc2[nH]1 [Example 13, (6-Bromo-1H-indol-2-yl)methanamine] | 16 µg/mL | – | 256 µg/mL (≈ 1140 µM) | 256 µg/mL (≈ 1140 µM) | 128 µg/mL (≈ 569 µM) | 64 µg/mL (≈ 284 µM) | – | – | – | – | – | – | –
